Where a name gives a salt, the structure may show the parent alone.

Results on 48 compounds are retold here after patent US8354402B2, “Polyarylcarboxamides useful as lipid lowering agents” (Janssen Pharmaceutica N.V., priority 2000, dated 2013).

The subject of the first assay is ApoB secretion, HepG2 cells. Nature of the assay: Quantification of the secretion of ApoB (HepG2 cells, immunoprecipitation, scintillation counting). The following applies: 24 hours of incubation, listed as 37. In kind it is cell-based. Here is the method:
C.1. Quantification of the Secretion of ApoB
HepG2 cells were cultured in 24-well plates in Minimal Essential Medium Rega 3 containing 10% fetal calf serum. Rega 3 has the following composition: CaCl2 (264 μg/ml), KCl (400 μg/ml), MgSO4.7H2O (200 μg/ml), NaCl (6800 μg/ml), NaHCO3 (850 μg/ml), NaH2PO4.H2O (158 μg/ml), D-glucose (1000 μg/ml), phenol red (10 μg/ml), L-alanine (8.9 μg/ml), L-arginine HCl (12 μg/ml), L-asparagine.H2O (15 μg/ml), L-aspartic acid (13.3 μg/ml), L-cystine (24 μg/ml), L-glutamic acid (14.7 μg/ml), glycine (7.5 μg/ml), L-histidine.HCl .H2O (42 μg/ml), L-isoleucine (52 μg/ml), L-leucine (52 μg/ml), L-lysine.HCl (72.5 μg/ml), L-methionine (15 μg/ml), L-phenylalanine (32 μg/ml), L-proline (11.5 μg/ml), L-serine (10.5 μg/ml), L-threonine (48 μg/ml), L-tryptophan (10 μg/ml), L-tyrosine (36 μg/ml), L-valine (46 μg/ml), D-Ca pantothenate (1 μg/ml), choline chloride (1 μg/ml), folic acid (1 μg/ml), 1-enositol (2 μg/ml), nicotinamide (1 μg/ml), pyridoxal HCl (1 μg/ml), riboflavin (0.1 μg/ml) and thiamine HCl (1 μg/ml).
At 70% confluency, the medium was changed and the test compound or carrier (dimethylsulfoxide, 0.4% final concentration) was added. After 24 hours of incubation, the medium was transferred to Eppendorf tubes and cleared by centrifugation. A sheep antibody directed against either apo B was added to the supernatant and the mixture was kept at 8° C. for 24 hours. Then, rabbit anti-sheep antibody was added and the immune complex was allowed to precipitate for 24 hours at 8° C. The immunoprecipitate was pelleted by centrifugation for 25 minutes at 1320 g and washed twice with a buffer containing 40 mM 4-morpholinepropanesulfonic acid, 40 mM NaH2PO4, 100 mM NaF, 0.2 mM dithiothreitol, 5 mM ethylenediamine tetraacetic acid, 5 mM ethylenebis (oxyethylenenitrilo) tetraacetic acid, 1% Triton-X-100, 0.5% sodium deoxycholate, 0.1% sodium dodecylsulphate, 0.2 μM leupeptin and 0.2 μM phenylmethylsulphonylfluoride. Radioactivity in the pellet was quantified by liquid scintillation counting.
Resulting IC50 values are enumerated in Table C.1 for a number of compounds No. 1 to No. 123.
In the case of `COC(=O)C(c1ccccc1)C1CCN(c2ccc(NC(=O)c3ccccc3-c3ccc(C(F)(F)F)cc3)cc2)CC1` (stereo not drawn) [Co. No. 37, methyl α-phenyl-1-[4-[[[4′-(trifluoromethyl)[1,1′-biphenyl]-2-yl]carbonyl]amino]phenyl]-4-piperidineacetate trifluoroacetate (1:1)], the pIC50 is listed as 7.507.

The assay is the same for the next values; noted with them: Homo sapiens, 24 hours of incubation.
As for `CC(=O)N(c1ccccc1)C1CCN(c2ccc(NC(=O)c3ccccc3-c3ccc(C(F)(F)F)cc3)cc2)CC1` [Co. No. 253], the midpoint of inhibition, the IC50, lay at 130 nM. `CCNC(=O)N(c1ccccc1)C1CCN(c2ccc(NC(=O)c3ccccc3-c3ccc(C(F)(F)F)cc3)cc2)CC1` [Co. No. 252]: the IC50 is 12.2 nM.

Still in this assay, the particulars now being: Homo sapiens, HepG2, 24 h, 24 hours of incubation.
Turning to `O=C(Nc1ccc(C2CCN(C(C(=O)NCC(F)(F)F)c3ccccc3)CC2)cc1)c1ccccc1-c1ccc(C(F)(F)F)cc1` (stereo not drawn) [Co. No. 78], the IC50 was 32.5 nM.

Compound `CCCNC(=O)C(c1ccccc1)N1CCC(c2ccc(NC(=O)c3ccccc3-c3ccc(C(F)(F)F)cc3)cc2)CC1` (stereo not drawn) [Co. No. 70] gave an IC50 of at most 30 nM. Take `O=C(Nc1ccc(N2CCC(C(C(=O)Nc3ccccc3)c3ccccc3)CC2)cc1)c1ccccc1-c1cccc(C(F)(F)F)c1` (stereo not drawn) [Co. No. 118]: the IC50 was 127 nM. The compound `O=C(Nc1ccc(N2CCC(C(C(=O)OCCc3ccccc3)c3ccccc3)CC2)cc1)c1ccccc1-c1ccc(C(F)(F)F)cc1` (stereo not drawn) [Co. No. 250] had an IC50 of 233 nM. `O=C(Nc1ccc(N2CCC(C(C(=O)NCc3ccccc3)c3ccccc3)CC2)cc1)c1ccccc1-c1cccc(C(F)(F)F)c1` (stereo not drawn) [Co. No. 105] gave a half-maximal inhibitory concentration (IC50) of 90.6 nM. Turning to `COC(=O)C(c1ccccc1)N1CCN(c2ccc(NC(=O)c3ccc(F)cc3-c3ccc(C(F)(F)F)cc3)cc2)CC1` (stereo not drawn) [Co. No. 185], the concentration for half-maximal inhibition (IC50) was 48.8 nM. On to `O=C(Nc1ccc(C2CCN(C(C(=O)NCc3ccccc3)c3ccccc3)CC2)cc1)c1ccccc1-c1ccc(C(F)(F)F)cc1` (stereo not drawn) [Co. No. 79], for which the IC50 is 50 nM.

Compound `CCCNC(=O)C(c1ccccc1)C1CCN(c2ccc(NC(=O)c3ccccc3COc3ccccc3)cc2)CC1` (stereo not drawn) [Co. No. 17] had an IC50 of 199 nM. For the compound `CCNC(=O)C(c1ccccc1)N1CCN(c2cc(C)c(NC(=O)c3ccccc3-c3ccc(C(F)(F)F)cc3)c(C)c2)CC1` (stereo not drawn) [Co. No. 216], the IC50 was 47.1 nM. Still for that read-out and setting: with `CCNC(=O)C(c1ccccc1)N1CCN(c2ccc(NC(=O)c3ccc(C)cc3-c3ccc(C(F)(F)F)cc3)cc2)CC1` (stereo not drawn) [Co. No. 194] the figure was 43 nM; with `O=C(Nc1ccc(N2CCN(CC(C(=O)NCc3ccccc3)c3ccccc3)CC2)cc1)c1ccccc1-c1ccc(C(F)(F)F)cc1` (stereo not drawn) [Co. No. 67], 247 nM; with `CCNC(=O)C(c1ccccc1)C1CCN(c2ccc(NC(=O)c3ccccc3-c3ccc(C(F)(F)F)cc3)cc2)CC1` (stereo not drawn) [Co. No. 181], 3.31 nM.

Turning to `COC(=O)C(c1ccccc1)N1CCN(c2ccc(NC(=O)c3ccccc3-c3ccc(C(F)(F)F)cc3)cc2C)CC1` (stereo not drawn) [Co. No. 211], the half-inhibitory concentration (IC50) is 19.9 nM. `CCNC(=O)C(c1ccccc1)N1CCCN(c2ccc(NC(=O)c3ccccc3-c3ccc(C(F)(F)F)cc3)cc2)CC1` (stereo not drawn) [Co. No. 122]: the IC50 is 414 nM. Still for that read-out and setting: the value for `COC(=O)C(c1ccccc1)C1CCN(c2ccc(NC(=O)c3cccc(C)c3-c3ccc(C(C)C)cc3)cc2)CC1` (stereo not drawn) [Co. No. 235] was below 30 nM; that for `CC(C)NC(=O)C(c1ccccc1)C1CCN(c2ccc(NC(=O)c3cccc4c3-c3ccccc3C4)cc2)CC1` (stereo not drawn) [Co. No. 21] was 245 nM.

`C=CCNC(=O)C(c1ccccc1)N1CCC(c2ccc(NC(=O)c3ccccc3-c3ccccc3)cc2)CC1` (stereo not drawn) [Co. No. 163] gave an IC50 of 250 nM. Still for that read-out and setting: with `CCCNC(=O)C(c1ccccc1)C1CCN(c2ccc(NC(=O)c3ccccc3-c3ccccc3)cc2)CC1` (stereo not drawn) [Co. No. 13] the figure was at most 30 nM; with `COC(=O)C(c1ccccc1)N1CCN(c2ccc(NC(=O)c3c(C)cccc3-c3ccc(C(F)(F)F)cc3)cc2)CC1` (stereo not drawn) [Co. No. 188], 10 nM.

In the case of `COC(=O)C(c1ccccc1)N1CCN(c2cc(C)c(NC(=O)c3ccccc3-c3ccc(C(F)(F)F)cc3)c(C)c2)CC1` (stereo not drawn) [Co. No. 209], inhibition was half-maximal at 7.96 nM (IC50). The compound `Cc1ccc(-c2ccccc2C(=O)Nc2ccc(N3CCC(C(C(=O)NCc4ccccc4)c4ccccc4)CC3)cc2)cc1` (stereo not drawn) [Co. No. 104] gave an IC50 of 7.94 nM. Consider `COC(=O)C(c1ccccc1)N1CC=C(c2ccc(NC(=O)c3ccccc3-c3ccccc3)cc2)CC1` (stereo not drawn) [Co. No. 156], for which the IC50 is 122 nM.

Regarding `COC(=O)C(c1ccccc1)C1CCN(c2ccc(NC(=O)c3cccc(C)c3-c3ccc(CC(C)C)cc3)cc2)CC1` (stereo not drawn) [Co. No. 236], inhibition was half-maximal at 21.7 nM (IC50). The compound `O=C(Nc1ccc(N2CCC(C(C(=O)NCc3ccccc3)c3ccccc3)CC2)cc1)c1ccccc1-c1ccc(F)cc1` (stereo not drawn) [Co. No. 102] gave an IC50 of 18.5 nM. `O=C(Nc1ccc(N2CCN(C(C(=O)OCc3ccccc3)c3ccccc3)CC2)cc1)c1ccccc1-c1ccc(C(F)(F)F)cc1` (stereo not drawn) [Co. No. 142]: the IC50 was 114 nM.

In turn, `COC(=O)C(c1ccccc1)N1CCN(c2cc(F)c(NC(=O)c3ccccc3-c3ccc(C(F)(F)F)cc3)c(F)c2)CC1` (stereo not drawn) [Co. No. 204] showed an IC50 of 428 nM.

Regarding `O=C(Nc1ccc(N2CCC(C(C(=O)OCc3ccccc3)c3ccccc3)CC2)cc1)c1ccccc1-c1ccc(C(F)(F)F)cc1` (stereo not drawn) [Co. No. 174], inhibition was half-maximal at 92.3 nM (IC50).

For `CCNC(=O)C(c1ccccc1)N1CCN(c2ccc(NC(=O)c3ccccc3-c3ccc(C(F)(F)F)cc3)c(Cl)c2)CC1` (stereo not drawn) [Co. No. 214], the IC50 is below 30 nM.

Compound `O=C(Nc1ccc(N2CCC(C(C(=O)Nc3ccccc3)c3ccccc3)CC2)cc1)c1ccccc1Cc1ccccc1` (stereo not drawn) [Co. No. 35] gave an IC50 of at least 3000 nM. Same read-out and setting: the value for `O=C(Nc1ccc(N2CCC(C(C(=O)OCCCc3ccccc3)c3ccccc3)CC2)cc1)c1ccccc1-c1ccc(C(F)(F)F)cc1` (stereo not drawn) [Co. No. 246] was 173 nM. Same read-out and setting: with `O=C(Nc1ccc(N2CCC(C(C(=O)Oc3ccccc3)c3ccccc3)CC2)cc1)c1ccccc1-c1ccc(C(F)(F)F)cc1` (stereo not drawn) [Co. No. 175] the figure was below 30 nM; with `CC(C)CCOC(=O)C(c1ccccc1)N1CCC(c2ccc(NC(=O)c3ccccc3-c3ccc(C(F)(F)F)cc3)cc2)CC1` (stereo not drawn) [Co. No. 227], 187 nM; with `COC(=O)C(c1ccccc1Cl)N1CCN(c2ccc(NC(=O)c3ccccc3-c3ccc(C(F)(F)F)cc3)cc2)CC1` (stereo not drawn) [Co. No. 258], 139 nM. The compound `COC(=O)C(c1ccccc1)N1CCN(c2ccc(NC(=O)c3ccccc3-c3ccc(C(F)(F)F)cc3)c(Cl)c2)CC1` (stereo not drawn) [Co. No. 207] had an IC50 below 30 nM. In the case of `Nc1cccc(-c2ccccc2C(=O)Nc2ccc(N3CCC(C(C(=O)NCc4ccccc4)c4ccccc4)CC3)cc2)c1` (stereo not drawn) [Co. No. 98], half-maximal inhibition (IC50) was put at 57.9 nM.

With `CCNC(=O)C(c1ccccc1)N1CCN(c2ccc(NC(=O)c3ccccc3-c3ccc(C(F)(F)F)cc3)c(F)c2)CC1` (stereo not drawn) [Co. No. 219], the IC50 was 78.5 nM. In turn, `O=C(Nc1ccc(C2CCN(C(C(=O)NCc3ccccn3)c3ccccc3)CC2)cc1)c1ccccc1-c1ccc(C(F)(F)F)cc1` (stereo not drawn) [Co. No. 77] showed an IC50 of at most 30 nM. Compound `O=C(Nc1ccc(N2CCC(C(C(=O)Nc3ccccc3)c3ccccc3)CC2)cc1)c1ccccc1CSc1ccccc1` (stereo not drawn) [Co. No. 31] had an IC50 of 1280 nM.

Compound `CCNC(=O)C(c1ccccc1)N1CCN(c2ccc(NC(=O)c3ccccc3-c3ccccc3)cc2)CC1` (stereo not drawn) [Co. No. 139] showed an IC50 of 86.1 nM. Compound `O=C(Nc1ccc(N2CCC(C(C(=O)Nc3ccccc3)c3ccccc3)CC2)cc1)c1ccccc1-c1ccc2ccccc2c1` (stereo not drawn) [Co. No. 138] gave an IC50 of 99.3 nM. As to `CCNC(=O)C(c1ccccc1)N1CCN(c2ccc(NC(=O)c3ccc(Cl)cc3-c3ccc(C(F)(F)F)cc3)cc2)CC1` (stereo not drawn) [Co. No. 201], the IC50 is below 30 nM. Compound `CCOC(=O)C(c1ccccc1)C1CCN(c2ccc(NC(=O)c3ccccc3-c3ccc(C(F)(F)F)cc3)cc2)CC1` (stereo not drawn) [Co. No. 243] had an IC50 below 30 nM. Compound `COC(=O)C(c1ccc(Br)cc1)N1CCN(c2ccc(NC(=O)c3ccccc3-c3ccc(C(F)(F)F)cc3)cc2)CC1` (stereo not drawn) [Co. No. 261] gave an IC50 of 743 nM. As for `O=C(Nc1ccc(N2CCC(C(C(=O)Nc3ccccc3)c3ccccc3)CC2)cc1)c1ccccc1-c1cccc2ccccc12` (stereo not drawn) [Co. No. 137], the IC50 is 1770 nM. For `O=C(Nc1ccc(N2CCN(C(C(=O)Oc3ccccc3)c3ccccc3)CC2)cc1)c1ccccc1-c1ccc(C(F)(F)F)cc1` (stereo not drawn) [Co. No. 158], half-maximal inhibition (IC50) required 21.3 nM.

Usually pIC50 stands for the IC50 on a negative log10 scale, so that one unit is a factor of ten. The low end stands for a high IC50, the high end for a low IC50. For orientation: IC50 means the concentration that inhibits the measured activity by half. Read a high IC50 as weaker potency in that assay.
